Test results reported in patent US20080124813A1, “Bead-based radioimmunoassay” (Phoenix Pharmaceuticals, Inc., priority 2006, published 2008).
No end group written: not given here.

Experiments:
anti-ghrelin antibody [1] = test: Time course of I^125-ghrelin binding to anti-ghrelin antibody-conjugated bead; details: room temp (21° C.), 0-249 min, FIG. 3
Procedure: A particular embodiment of the immunoassay method for dissociable capture of radiolabeled ghrelin peptide by solid phase linked antibody can be performed as follows:
1. Combine 100 ul of I^125-ghrelin (specific activity 3.15 p mole/ml) prepared in accordance with Example 1.3 (Example 1 step 3) to each of eight aliquots of 50 μL antibody-conjugated beads and to each of two aliquots of 50 μL glycine-conjugated beads prepared in accordance with Example 2B suspended in stock solution (0.01 M Tris (pH 7.4), 0.1% NaN3, 0.1% w/v bovine serum albumin (BSA), 0.15M NaCl, and 0.001M EDTA.
2. Incubate antibody-conjugated beads at room temp (21° C.) for 0, 5, 10, 15, 30, 60, 120, and 249 min.
3. To each incubated mixture of antibody-conjugated beads and I^125-ghrelin add 1.5 ml RIA buffer (150 mM NaCl, 100 mM sodium phosphate, 1% BSA and 1% Triton X-100), mix, and centrifuge for 5 minutes at 17,000× g. Aspirate off the supernatant. 4. Wash once with 1 ml RIA buffer. Aspirate off the supernatant
5. Measure and record counts per minute for each assay tube.
The results shown are the means of duplicates. The counts from gamma counter represent the specific binding by anti-ghrelin antibody. The binding curve was generated using a non-linear least square fitting program in GraphPad Prism (version 2.01).

insulysin (IDE) = insulysin (IDE) (Homo sapiens, UniProt P14735); test: Peptide degradation by insulysin (IDE), read out by bead-based RIA; format: biochemical; details: for degradation kinetics with insulysin (IDE): 37° C., 0-15 min, means of duplicates, FIGS. 10 and 11
Source text: Now referring primarily to FIGS. 10, 11 and 12 and Example 12, an embodiment of the inventive immunoassay system (1) allows for the coincident measurement of the degradation of a plurality of target particles (7) contained in the same immunoassay sample (6). […] Similarly, now referring to FIG. 11, the inventive immunoassay method can be used to determine the decreased concentration of amylin in an immunoassay sample (6) upon degradation by IDE.
1. Prepare separately solutions of 200 pg/mL of human glucagon (adjust with I^125-glucagon) and 40 pg/mL of human amylin (adjust with I^125-amylin) each in a total volume of 2 mL.
2. Prepare a digestion solution of insulysin (IDE) 6.2 μg in 3.1 mL of 0.15M NaCl, 25 mM Tris, pH7.5. Aliquote 0.4 mL to a tube for total of 12 tubes of digestion solution.
3. Add to the digestion solution with above 0.4 mL of human glucagon or amylin solution.
4. Incubate at 37° C. for a time interval at 15, 10, 7, 5, 3, 1 min and a tube without the incubation.
5. At the indicated time, add 40 μL protease inhibitor (bacitracin 2 mg/ml final concentration) and 300 μL of 10 mM ammonium chloride to stop the reaction.
6. Transfer 50 μL antibody conjugated bead prepared in accordance with Example 2B, 120 μL RIA buffer, 50 μl aprotinin and 80 μL of digested I^125-labeled peptide solution to 1 mL conical tube and incubate with agitation for 30 min.
7. Spin 5 min at 16000×g to pellet the beads and discard supernatant.
8. Add 1 mL of RIA buffer and centrifuge at 1700×g for 5 min.
9. Remove the supernatant and count the CPM of the pellet by gamma counter.

anti-ghrelin antibody [2] = test: 150 μl small volume competitive radiolabeled ghrelin binding by bead-linked antibody (bead-based RIA); details: competition with I^125-ghrelin, total volume about 150 μl; stated as comparable to conventional RIA of Example 1
Procedure: A particular embodiment of the immunoassay method for competitive dissociable capture of radiolabeled ghrelin peptide by solid phase linked antibody to determine ghrelin peptide concentration in a 150 μl small volume immunoassay sample can be performed as follows:
1. Combine 25 μl of antibody conjugated beads in stock solution prepared in accordance with Example 2B to 50 μl human plasma or 50 μl standard solution.
2. Mix the resulting combination and incubate 6 hrs at 4° C.
3. Add 25 μl of I^125-ghrelin prepared in accordance with Example 1.3 and 50 μl RIA buffer.
4. Incubate 16-18 hrs. at 4° C.
5. Add 1.5 ml RIA buffer to incubated mixture and centrifuge for 5 minutes at 17,000× g. Aspirate off the supernatant (except total counts tubes). 6. Wash once with 1 ml RIA buffer. Aspirate off the supernatant (except total counts tubes).
7. Measure and record counts per minute for each assay tube.
The plasma concentration was interpolated from standard curves and indicate about 18.7 pg in 150 ul solution. The amounts of isotope labeled-ligands applied (as indicated in total counts tubes) was twice that of the conventional RIA described in Example 1. […] The total assay time was about 24 hours for this embodiment of the inventive immunoassay method. […]

anti-ghrelin antibody [3] = test: 60 μl small volume competitive radiolabeled ghrelin binding by bead-linked antibody (bead-based RIA); details: competition with I^125-ghrelin, total volume about 60 μl; stated as comparable to conventional RIA of Example 1
Procedure: A particular embodiment of the immunoassay method for competitive dissociable capture of radiolabeled ghrelin peptide by solid phase linked antibody to determine ghrelin peptide concentration in a 60 μl small volume immunoassay sample can be performed as follows:
1. Combine 25 μl of antibody immobilized beads in stock solution prepared in accordance with Example 2B to about 25 μl human plasma or 10 μl-25 μl standard solution.
2. Mix resulting combination and incubate 6 hours at room temperature.
3. Add 10 μl 125I-peptide. Mix and incubate overnight (16-18 hrs.) at 4° C. 4. Add RIA buffer. Mix and centrifuge for 5 minutes at 1,700 g. Aspirate off the supernatant (except total count tubes). 5. Wash once with 1 ml RIA buffer. Aspirate off the supernatant (except total count tubes).
6. Measure and record counts per minute for each assay tube.
The plasma concentration was interpolated from standard curves and indicate about 18.7 pg in 150 μl solution. The amounts of isotope labeled-ligands applied (as indicated in total counts tubes) was twice that of the conventional RIA as described in Example 1. […]

I^125-ghrelin: I^125-labeled ghrelin peptide used as labeled particle (GSSFLSPEHQRVQQRKESKKPPAKLQPR; ends and bridges not checked; also: 125I label, position not given here; UniProt Q9UBU3 24-51, looked up)
time to saturation binding to antibody-conjugated beads (anti-ghrelin antibody [1]): two hour saturation binding

glucagon
degradation kinetics with insulysin (IDE) (insulysin (IDE)): pseudo-first order degradation | concentration in immunoassay sample upon degradation with insulysin (insulysin (IDE); increasing duration of incubation with IDE at 37° C., FIG. 10): decreases

ghrelin (GSSFLSPEHQRVQQRKESKKPPAKLQPR; ends and bridges not checked; UniProt Q9UBU3 24-51, looked up) [human peptide ghrelin, 28 residues in the naturally occurring form; target particle of the immunoassay]
IC50 (anti-ghrelin antibody [2]): about 400 pg/ml | IC50 (anti-ghrelin antibody [3]): around 400 pg/ml

amylin (KCNTATCATQRLANFLVHSSNNFGAILSSTNVGSNTY; not fully specified (C-terminus, bridges); cysteine pairing not given here; also: 125I label, position not given here; UniProt P10997 34-70, looked up) [human amylin, human amylin, adjusted with I^125-amylin, digested with insulysin]
degradation kinetics with insulysin (IDE) (insulysin (IDE)): pseudo-first order degradation
